The text below walks through data of US5892029A, “3-hydroxy-2(1H)-pyridinone chelating agents” (priority 1997, dated 1999).

Where two headings read alike, the source gives them in different places.

The format of data set [1] is in vivo, mice. To be noted: for body weight / kidney weight / plasma urea N: mean ± SD. On the procedure:
The test of acute toxicity of these novel ligands was carried out as follows. […] The ligand was dissolved in 0.5 to 1.0 ml of saline at pH 7 to 8. After a period of observation, the mice were killed, selected tissues were removed and fixed for histopathological examination,and unusual findings at autopsy were recorded.

The nature of data set [2]: Promoting excretion of 238Pu(IV) in mice by injected ligands (Table 3). To be noted: 30 μmol/kg i.p. In kind it is in vivo. From the text:
Animal studies were completed using methods detailed in Radiation Protection Dosimetry, 1994, 53, 305: P. W. Durbin et al., "In Vivo Chelation of Am(III), Pu(IV), Np(V) and U(VI) in Mice by TREN-(Me-3,2-HOPO)"; Radiation Protection Dosimetry, 1989, 17, 351: P. W. Durbin et al., "Removal of ^238 Pu(IV) from Mice by Polycatechoylate, -Hydroxamate or -Hydroxypyridinonate Ligands"; Radiation Research, 1984, 99, 85: P. W. Durbin et al., "Specific Sequestering Agents for the Actinides . . . "; Radiation Research, 1984, 99, 106: P. W. Durbin et al., "Removal of Pu and Am from Beagles and Mice . . . "; Radiation Research, 1980, 81, 170: R. D. Lloyd et al., and P. W. Durbin et al., "Specific Sequestering Agents for the Actinides . . . ". The foregoing articles are hereby incorporated by reference.
Radionuclides used in the animal studies came from a variety of sources. The ^238 Pu(IV) citrate and ^241 Am(III) citrate solutions were prepared for animal injection by 8- to 10-fold dilution with 0.14M NaC1 (pH 4) of concentrated stock solutions (0.08M sodium citrate buffer) that had been held in frozen storage at Lawrence Berkeley Laboratory (hereinafter LBL) for several years. [The ^238 Pu(IV) was originally obtained from D. R. Atherton at the University of Utah Radiobiology Laboratory, Salt Lake City. The ^241 Am(III) solution had been obtained many years earlier from the LBL Actinide Chemistry group.]
The novel chelating agents of the present invention were tested for their effectiveness in promoting excretion of ^238 Pu(IV) in mice by injected ligands as follows. Mice, in groups of five, each received an intravenous injection of 1850 Bq^238 Pu(IV) in 0.2 mL of citrate buffer. One hour later, 30 μmol/kg of ligand was injected intraperitoneally in 0.5 mL of saline. The mice were killed 24 hours after the Pu injection, frozen, and dissected after partial thawing. The ^238 Pu in skeleton, soft tissues, and separated excreta was determined by counting the ^234 U L x-rays. […]

The conditions of data set [3]: Fe(III); background; cited from earlier work.
Where [4] appears, read: protocol I: 100 μmol/kg × 10 daily i.p., 11 d.
Where [5] appears, read: protocol I: 100 μmol/kg × 10 daily i.p., 21 d.
Where [6] appears, read: protocol II: 500 μmol/kg × 2 in 8 h i.p., 11 d.

For `Cn1ccc(C(=O)NCCOCCNC(=O)c2ccn(C)c(=O)c2O)c(O)c1=O` [5-LI-O-Me-3,2-HOPO, 1,5-bis[(3-hydroxy-1-methyl-2-oxo-1,2-dihydro-pyridin-4-yl)carboxamido]-3-oxypentane], in data set [1] (mouse, in vivo), the “toxicity / mortality (in words)” value was “low toxicity”. Moreover, the results for the body weight in data set [1] (setting [4]), in data set [1] (setting [5]) and in data set [1] (setting [6]) were 103 ± 5 percent control, 101 ± 5 percent control and 100 ± 2 percent control, respectively. Further, the kidney weight in data set [1] (setting [4]) amounted to 100 ± 19 percent control; in data set [1] (setting [5]), 111 ± 5 percent control; in data set [1] (setting [6]), 108 ± 10 percent control. The “plasma urea N” value in data set [1] (setting [4]) is on record as 83 ± 5 percent control; in data set [1] (setting [5]), 86 ± 18 percent control; in data set [1] (setting [6]) it was 77 ± 10 percent control. Further, the no. of survivors is 5 in data set [1] (protocol I: 100 μmol/kg × 10 daily i.p., 11 d, of 5 mice); 5 in data set [1] (protocol I: 100 μmol/kg × 10 daily i.p., 21 d, of 5 mice); 110 in data set [1] (protocol II: 500 μmol/kg × 2 in 8 h i.p., 11 d, of 5 (5-LI) or 10 (5-LI-O) mice). The “effectiveness of Pu removal, injected (in words)” value in data set [2] was “as effective or more effective than the hexadentate and octadentate chelating agents”.
`O=C(N[C@H]1COC(=O)[C@@H](NC(=O)c2cccc(O)c2O)COC(=O)[C@@H](NC(=O)c2cccc(O)c2O)COC1=O)c1cccc(O)c1O` [enterobactin]: in data set [3], the “formation constant Kf” value is reported as “≈ 10^49” and the pM is 35.5.
